# From US20090036499A1, “FLY CONTROL METHOD” (priority 2007, published 2009)
# Test system: Adult L. serricata (blowflies)
# Experiment: Test A: adult blowflies on blood agar containing test compound, scored by number of dead flies
# Format: in vivo
# Settings: 4 flies in test
# Procedure: • Adult L. serricata (blowflies): Adult flies are placed on beds of blood agar (in individual test wells; 4 flies per well) in which test compound, (3-bromo-N-[4-chloro-2-methyl-6-[(methylamino)carbonyl]phenyl]-1-(3-chloro-2-pyridinyl)-1H-pyrazole-5-carboxamide), was dissolved/suspended prior to hardening of agar. Flies can take up test compound by both ingestion and contact. Assays are scored by number of dead flies at 2 hours, 4 hours, and 24 hours.
smiles,measurement,setting,value
"CCOP(=S)(OCC)Oc1nc(Cl)c(Cl)cc1Cl [Chloropyriphos, O,O-diethyl-O-3,5,6-trichloro-2-pyridyl-phosphorothioate]",Number dead flies at 2 hours,1 ppm in blood agar,0
same,Number dead flies at 4 hours,1 ppm in blood agar,1
same,Number dead flies at 24 hours,1 ppm in blood agar,4
same,Number dead flies at 2 hours,10 ppm in blood agar,1
same,Number dead flies at 4 hours,10 ppm in blood agar,4
same,Number dead flies at 24 hours,10 ppm in blood agar,4
same,Number dead flies at 2 hours,25 ppm in blood agar,3
same,Number dead flies at 4 hours,25 ppm in blood agar,4
same,Number dead flies at 24 hours,25 ppm in blood agar,4
same,Number dead flies at 2 hours,50 ppm in blood agar,4
same,Number dead flies at 4 hours,50 ppm in blood agar,4
same,Number dead flies at 24 hours,50 ppm in blood agar,4
same,Number dead flies at 2 hours,100 ppm in blood agar,4
same,Number dead flies at 4 hours,100 ppm in blood agar,4
same,Number dead flies at 24 hours,100 ppm in blood agar,4
"CNC(=O)c1cc(Cl)cc(C)c1NC(=O)c1cc(Br)nn1-c1ncccc1Cl [Test Compound, 3-bromo-N-[4-chloro-2-methyl-6-[(methylamino)carbonyl]phenyl]-1-(3-chloro-2-pyridinyl)-1H-pyrazole-5-carboxamide]",Number dead flies at 2 hours,1 ppm in blood agar,0
same,Number dead flies at 4 hours,1 ppm in blood agar,0
same,Number dead flies at 24 hours,1 ppm in blood agar,0
same,Number dead flies at 2 hours,10 ppm in blood agar,0
same,Number dead flies at 4 hours,10 ppm in blood agar,0
same,Number dead flies at 24 hours,10 ppm in blood agar,1
same,Number dead flies at 2 hours,25 ppm in blood agar,0
same,Number dead flies at 4 hours,25 ppm in blood agar,0
same,Number dead flies at 24 hours,25 ppm in blood agar,2
same,Number dead flies at 2 hours,50 ppm in blood agar,0
same,Number dead flies at 4 hours,50 ppm in blood agar,0
same,Number dead flies at 24 hours,50 ppm in blood agar,2
same,Number dead flies at 2 hours,100 ppm in blood agar,0
same,Number dead flies at 4 hours,100 ppm in blood agar,0
same,Number dead flies at 24 hours,100 ppm in blood agar,3
